The source of these data is US20250368872A1, “PROTEIN CROSSLINKING AGENT” (CANON KABUSHIKI KAISHA, priority 2023, published 2025).

The assay deals with silk fibroin powder. Kind of assay: Evaluation of adsorptivity of groups containing aromatic rings to proteins having a β-sheet structure. Format: binding. The conditions noted are these: for Adsorption rate to fibroin (%): 0.02 mM, 0.15 mL methanol solution on 10 mg silk fibroin powder, air-dried, 0.15 mL water, stirred 5 minutes, supernatant absorbance; for Adsorptivity: class of adsorption rate to fibroin. Here is the method:
After distillation of methanol by air-drying, 0.15 mL of water was added. After stirring for 5 minutes, the supernatant was collected. The concentration of groups containing aromatic rings in the collected supernatant liquid and the percentage of adsorption of groups containing aromatic rings to fibroin were calculated by absorbance measurement, and the adsorptivity of groups containing aromatic rings to proteins having a β-sheet structure was evaluated by the following criteria.
“Evaluation A” and “Evaluation B” indicate the level at which groups containing aromatic rings adsorb strongly to proteins having a β-sheet structure, and “Evaluation C” indicates the low adsorptivity of groups containing aromatic rings.
• A: 90% or more • B: 60% or more but less than 90% • C: Less than 60%

Regarding `O=C(O)CCOc1ccccc1-c1nc2ccccc2s1` [Compound 4], the “Adsorption rate to fibroin (%)” value amounted to 71% and the Adsorptivity entry is “B (60% or more but less than 90%)”.
As to `O=C(O)CCNc1ccc(-c2nc3ccccc3s2)cc1` [Compound 2], the “Adsorption rate to fibroin (%)” value is recorded as 79% and the Adsorptivity entry was “B (60% or more but less than 90%)”.
As for Thioflavin T acid [reference compound], the “Adsorption rate to fibroin (%)” value amounted to 91% and the Adsorptivity entry is given as “A (90% or more)”.
